Data set [1] relates to clozapine-induced hypersalivation. The data set is described as follows: three clozapine-treated patients with hypersalivation. It counts as in vivo, human. The source says: Clozapine is regarded as a particularly effective drug by many psychiatrists but it has a range of severe side effects. From the patient's point of view one of the most troublesome is hypersalivation. This may not sound very serious but the constant flow of large volumes of saliva is in fact very distressing for the patient and for those who are associated with the patient. The mechanism of the hypersalivation is unknown.

In a further data set the test system is schizophrenic breakdown. Particulars: 2 g/day with olanzapine, after about 4 weeks. The text has this:
(§1) In addition to citalopram they were then given 1 g/day of ethyl-EPA. […] Another case was a young person who dropped out of college with a schizophrenic breakdown.

Another data set deals with severe depression. In words: case history: severe depression, ethyl-EPA added to citalopram. It counts as in vivo, human. Particulars: 1 g/day in addition to citalopram, after four weeks.
From the text: as §1

The test system of data set [2] is patients who had schizophrenia. In words: randomised, placebo-controlled study of ethyl-EPA in clozapine-treated patients with schizophrenia (PANSS, MADRS). Particulars: 1 g or 2 g per day versus placebo, 12 weeks. The class given is in vivo, human. The text has this: Although the case reports of the effects of ethyl-EPA are convincing and in some cases dramatic, unequivocal proof of its efficacy must come from randomised, placebo-controlled trials. We therefore set up a randomised, placebo-controlled study of EPA in 34 patients who had schizophrenia according to the criteria set out in the American Psychiatric Association's Diagnostic and Statistical Manual of Mental Disorders (4th edition, DSM-IV). All of these patients were being treated with clozapine drugs but all remained seriously ill, with schizophrenic symptoms. Like many schizophrenics, some of the patients were also depressed. All were assessed at baseline and after 12 weeks using the Positive and Negative Symptom Scale for Schizophrenia (PANSS) and the Montgomery-Asberg Depression Rating Scale (MADRS). After giving informed consent, all the patients were randomised on a double blind basis to one of three groups: placebo, or 1 g or 2 g of ethyl-EPA per day in the form of 0.5 g capsules. Placebo and EPA capsules were indistinguishable from one another in appearance. All the patients improved to some degree so all the changes are percentage improvements

Another data set concerns bipolar disorder. The data set is described as follows: case reports: five patients with bipolar disorder. It counts as in vivo, human. Particulars: 2 g/day after switch from fish oil. The source says: This provided 1.8-3.6 g of EPA and 1.2-2.4 g of DHA per day. […] They were, however, far from completely normal. When the pure ethyl-EPA became available, they were switched from the fish oil to the pure EPA at a dose of 2 g/day in the form of four 0.5 g soft gelatin capsules. […] In particular they all noted an improvement in something which is difficult to measure by conventional psychiatric rating scales. This is a sense of inner tension or dysphoria, a state which is associated with the illness, but which may be exaggerated or changed by antipsychotic drugs to a state of confused tension, sometimes described as a sense of the brain being replaced by cotton wool, and a difficulty of thinking clearly in a straight line. […] They had not noticed this effect which being treated with the higher dose of EPA in the form of the EPA/DHA mix in fish oil.

In a further data set the test system is schizophrenia. The data set is described as follows: case report: schizophrenia, fish oil switched to ethyl-EPA. The class given is in vivo, human. The text has this: This provided around 1.9 g/day of EPA and 0.6 g/day of DHA. They were not taking other antipsychotic drugs. […] However, when they did this the symptoms returned and it was concluded that they had to take around 2 g/day of EPA to remain well. When the purified ethyl-EPA became available, they were switched to 4×0.5 g capsules, also providing around 2 g/day. […] They therefore dropped the dose to 1 g/day.

The test system of data set [3] is schizophrenia, drug-induced obesity. It counts as in vivo, human. Particulars: ethyl-EPA in addition to olanzapine, six months. The text has this: Obesity is another common side effect of antipsychotropic drugs. In this respect some of the newer drugs like olanzapine frequently seem to be even worse offenders than the typical neuroleptics. […] They preferred the olanzapine but it still left their withdrawn and unable to communicate normally with friends or family. To their distress it caused them to put on over 10 kg in weight. Their doctor decided to test ethyl-EPA in addition to olanzapine.

In data set [4] the test system is attention deficit hyperactivity disorder (ADHD). The data set is described as follows: case report: child with ADHD. The note with it: two capsules per day, after two weeks. The class given is in vivo, human. The text has this:
Attention deficit hyperactivity disorder (ADHD): ADHD and closely related conditions like attention deficit disorder and conduct disorders are commonly found in children. Occasionally they may be successfully treated by behaviour modification and other psychological techniques or by careful attention to diet. However, in most cases, paradoxical treatment with one of the stimulant drugs related in their action to amphetamine is required. Methylphenidate and dextroamphetamine are the commonest used. A child with serious ADHD since infancy was driving their parents to distraction. […] The parents were concerned about the long term consequences of stimulant drugs. The child was therefore tried on two capsules of pure ethyl-EPA per day. […] The child became less tense and irritable, less hyperactive, more open to reasoned discussion and enormously less disruptive both at home and school. Even when their methylphenidate was stopped, their behaviour remained improved.

The test system of the next data set is dementia. The data set is described as follows: case report: person with dementia. It counts as in vivo, human. Particulars: 4x0.5 g capsules per day, within four weeks. The source says:
Dementia: A person developed dementia, probably of Alzheimer type but possibly with multi-infarct contributions because of associated cardiovascular disease. As often occurs they also became withdrawn and depressed but, unfortunately, this state was interrupted by irrational and violent outbursts, usually directed at members of their family, but also sometimes against complete strangers. They were tried on two cholinergic drugs: although these produced a small improvement in their cognitive state they did nothing for their depression, irritability and anger. They were tried on a dose of 4×0.5 g capsules of pure ethyl-EPA, two given in the morning and two in the evening. […] Their family also thought their cognition had improved but this is difficult to be certain of because of their improved mood.

In a further data set the test system is Huntington's disease. In words: randomised double blind trial of 96% pure ethyl-EPA in Huntington's disease. It counts as in vivo, human. The note with it: 2 g/day, 6 months. The protocol:
Because early Huntington's disease may present with schizophrenia-like features, a randomised trial of 96% pure ethyl-EPA was set up in seven severely disabled patients in the final stages of Huntington's disease. All required 24 hour nursing care, had severe movement disorders, were irritable and were partially demented. They were randomised on a double blind basis to receive 2 g/day ethyl-EPA or 2 g/day placebo for 6 months. […] In four of the patients, two on ethyl-EPA and two on placebo, the brain degeneration was assessed at the beginning and end of the study by magnetic resonance imaging (MRI). MRI allows an accurate assessment of the size of the lateral ventricles, the fluid-filled spaces within the cerebral hemispheres. As Huntington's disease progresses, the lateral ventricles enlarge indicating loss of brain tissue. In the two patients on placebo over 6 months the ventricles enlarged as expected.

As for `CC/C=C\C/C=C\C/C=C\C/C=C\C/C=C\CCCC(=O)OCC` [ethyl-EPA], in data set [1], the psychiatric state entry was “substantial improvement in psychiatric state” and the salivation result is reported as “dramatically reduced the salivation to normal levels”. The clarity of thinking result in the data set on schizophrenic breakdown is given as “thinking more clearly”. Also, the effect on mood result with severe depression was “lightening of mood”. Further, the side effects result in [2] is given as “no reported side effects attributable to the E-EPA”. In the data set on bipolar disorder, the “clinical condition in bipolar disorder” value is “clinical condition improved considerably”; the “sense of dysphoria, tension and cotton-wool thinking” value is reported as “greatly reduced or disappeared altogether”. In addition, the “recurrence of symptoms after dose reduction” value in the data set on schizophrenia (1 g/day) is “did not lead to a recurrence of symptoms”. Besides, the “control of schizophrenia symptoms” value in the data set with schizophrenia (4x0.5 g capsules, around 2 g/day) is “controlled their symptoms very well”. In addition, the withdrawn state result in data set [3] is “gradually improved”. The “behaviour in ADHD” value in data set [4] is “substantial improvement in behaviour”. Besides, the “mood and irritability in dementia” value in the data set with dementia is “remarkable improvement”. The “clinical course of Huntington's disease” value in the data set with Huntington's disease (three patients) is recorded as “improved”. For the same molecule, the “lateral ventricle size by MRI” value with Huntington's disease (two patients) is “reduction in lateral ventricle size”.

The record behind these values is patent publication US6384077B1, “Highly purified EPA for treatment of schizophrenia and related disorders” (Laxdale Limited, priority 1999, dated 2002).
